Data on 30 compounds can be found in ChEMBL document CHEMBL1147462, “Exploring QSAR of melatonin receptor ligand benzofuran derivatives using E-state index” (Bioorg Med Chem Lett, 2004).

Assay [1] concerns the target T1, Melatonin receptor type 1B (Homo sapiens) (UniProt P49286).
T1 sequence (whole entry): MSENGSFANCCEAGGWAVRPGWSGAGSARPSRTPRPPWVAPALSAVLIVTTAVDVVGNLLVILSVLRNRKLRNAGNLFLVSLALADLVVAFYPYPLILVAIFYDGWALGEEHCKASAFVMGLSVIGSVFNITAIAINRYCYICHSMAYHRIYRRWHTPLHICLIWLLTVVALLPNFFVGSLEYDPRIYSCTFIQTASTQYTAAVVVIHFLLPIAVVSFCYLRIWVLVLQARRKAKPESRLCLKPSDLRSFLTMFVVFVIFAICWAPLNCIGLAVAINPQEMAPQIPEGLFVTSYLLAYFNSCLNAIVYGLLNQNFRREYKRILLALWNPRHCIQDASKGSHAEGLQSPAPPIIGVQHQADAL
Briefly: Binding affinity against melatonin receptor type 1B.

In assay [2] the target is Melatonin receptor type 1A (Homo sapiens) (UniProt P48039). Briefly: Binding affinity against Melatonin receptor type 1A.
The target of assay [3] is T2, Melatonin receptor (Homo sapiens) (UniProt P48039+P49286). The assay is described as follows: Selectivity (pC2-PC1) was determined. The assay is classed as protein assay.
Assay [4] deals with T2, Melatonin receptor (Homo sapiens). Briefly: Binding affinity against melatonin (MT1) receptor (pC1). The assay is classed as protein assay.

Sequence of Melatonin receptor type 1A (Homo sapiens) (P48039 whole entry): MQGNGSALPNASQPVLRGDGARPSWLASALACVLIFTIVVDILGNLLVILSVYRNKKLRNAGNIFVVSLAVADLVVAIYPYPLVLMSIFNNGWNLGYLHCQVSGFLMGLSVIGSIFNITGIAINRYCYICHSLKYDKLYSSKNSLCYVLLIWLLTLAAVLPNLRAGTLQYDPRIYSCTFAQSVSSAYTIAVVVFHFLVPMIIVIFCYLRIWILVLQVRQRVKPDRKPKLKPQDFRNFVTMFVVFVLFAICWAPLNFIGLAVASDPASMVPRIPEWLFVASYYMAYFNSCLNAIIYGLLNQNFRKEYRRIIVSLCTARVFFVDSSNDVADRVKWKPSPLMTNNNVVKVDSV
T2 sequence (P48039 whole entry, looked up, one chain of several): as the sequence (P48039 whole entry) above

Consider `C/C=C/C(=O)NCCc1c(-c2ccccc2)oc2ccc(OC)cc12`, for which the pC1 in assay [1] was 3.68; in assay [2], 3. The Selectivity in assay [3] came out at 0.682.
With `CCCC(=O)NCCc1c(Cc2ccccc2)oc2ccc(OC)cc12`, the values for the pC1 in assay [1] and in assay [2] were 3.7 and 2.48, respectively. Also, the Selectivity in assay [3] amounted to 1.22.
For `CCCCCCOc1ccc2oc(Cc3ccccc3)c(CCNC(C)=O)c2c1`, the pC1 in assay [1] was 2.49; in assay [2], 2.09. For the same compound, the Selectivity in assay [3] was 0.407.
Turning to `COc1ccc2oc(Cc3ccccc3)c(CCNC(=O)CI)c2c1`, the values for the pC1 in assay [1] and in assay [2] were 3.39 and 2.06, respectively. The same compound returned a Selectivity in assay [3] of 1.32.
On to `COc1ccc2oc(Cc3cc(C(F)(F)F)cc(C(F)(F)F)c3)c(CCNC(C)=O)c2c1`, for which the pC1 stood at 0.469 in assay [1] and 0.322 in assay [2]. In assay [3], this compound came in with a Selectivity of 0.147.
As for `COc1ccc(Cc2oc3ccc(OC)cc3c2CCNC(C)=O)cc1`, the pC1 was 3.3 in assay [1] and 1.62 in assay [2]. The compound also showed a Selectivity in assay [3] of 1.68.
As to `C=CCC(=O)NCCc1c(-c2ccccc2)oc2ccc(OC)cc12`, the pC1 stood at 4.7 in assay [1] and 5 in assay [2]. The same compound returned a Selectivity in assay [3] of -0.301.
The matching figures for `C=CC(=O)NCCc1c(-c2ccccc2)oc2ccc(OC)cc12`: 5, 4.7 and 0.301.
Take `CCCCCOc1ccc2oc(Cc3ccccc3)c(CCNC(C)=O)c2c1`: the pC1 in assay [1] amounted to 2.01; in assay [2] it was 1.37. Besides, the Selectivity in assay [3] amounted to 0.642.
With `COc1ccc2oc(Cc3ccccc3OC)c(CCNC(C)=O)c2c1`, the figures for the pC1 in assay [1] and in assay [2] were 3.47 and 1.84, respectively. In assay [3], this compound showed a Selectivity of 2.1.
As for `C=CC(=O)NCCc1c(Cc2cccc(OC)c2)oc2ccc(OC)cc12`, the figures for the pC1 in assay [1] and in assay [2] were 2.56 and 1.26, respectively. This compound yielded a Selectivity in assay [3] of 1.3.
Consider `COc1ccc2oc(-c3ccccc3)c(CCNC(C)=O)c2c1`, for which the pC1 in assay [1] was 4.7; in assay [2], 5. The Selectivity in assay [3] was -0.301.
The matching figures for `CC(=O)NCCc1c(Cc2ccccc2)oc2ccc(O)cc12`: 1.1, 0.245 and 0.852.
On the same counts, the results for `COc1ccc2oc(CCCc3ccccc3)c(CCNC(C)=O)c2c1` are 2.82, 1.5 and 1.32.
On to `C=CC(=O)NCCc1c(Cc2ccccc2)oc2ccc(OC)cc12`, for which the pC1 in assay [1] turned out to be 3.16; in assay [2] it was 1.27. In assay [3], the Selectivity came to 1.89.
Regarding `CCc1ccc2oc(Cc3cccc(OC)c3)c(CCNC(C)=O)c2c1`, the pC1 came to 1.77 in assay [1] and 0.541 in assay [2]. Further, the Selectivity in assay [3] came to 1.23.
The matching figures for `COc1ccc2oc(CC3CCCCC3)c(CCNC(C)=O)c2c1`: 2.6, 1.18 and 1.43.
On the same counts, the results for `CCc1ccc2oc(Cc3ccccc3)c(CCNC(C)=O)c2c1` are 2.08, 1.19 and 0.893.
`CC(=O)NCCc1c(Cc2ccccc2)oc2ccccc12`: the results for the pC1 in assay [1] and in assay [2] were 1.98 and 0.81, respectively. Further, the Selectivity in assay [3] was 1.17.
As for `COc1ccc2oc(-c3ccccc3)c(CCNC(=O)Cc3ccco3)c2c1`, the pC1 in assay [1] is 0.442; in assay [2], 1.89. The compound also returned a Selectivity in assay [3] of -1.45.
The matching figures for `C=CCC(=O)NCCc1c(Cc2ccccc2)oc2ccc(OC)cc12`: 4.22, 2.46 and 1.77.
In the case of `COc1ccc2oc(Cc3c(Cl)cccc3Cl)c(CCNC(C)=O)c2c1`, the values for the pC1 in assay [1] and in assay [2] were 1.89 and 1.07, respectively. In assay [3], this compound displayed a Selectivity of 0.82.
For `COc1ccc2oc(Cc3ccccc3)c(CCNC(=O)c3ccco3)c2c1`, the pC1 in assay [1] amounted to 1.44; in assay [2] it was 0.156. The compound also yielded a Selectivity in assay [3] of 1.28.
Regarding `CNC(=O)NCCc1c(Cc2ccccc2)oc2ccc(OC)cc12`, the pC1 in assay [1] came out at 3.46; in assay [2], 2.27. The Selectivity in assay [3] worked out at 1.19.
For `COc1ccc2oc(Cc3cccc(C(F)(F)F)c3)c(CCNC(C)=O)c2c1`, the pC1 was 2.93 in assay [1] and 1.1 in assay [2]. The compound further yielded a Selectivity in assay [3] of 1.83.
Consider `COc1cccc(Cc2oc3ccc(OC)cc3c2CCNC(C)=O)c1`, for which, in assay [1], the pC1 came out at 3.5. For the same compound, in assay [3], the Selectivity is 2.1.
Take `CNC(=O)NCCc1c(-c2ccccc2)oc2ccc(OC)cc12`: the pC1 in assay [4] and in assay [1] was 4.4 each time. This compound also returned a Selectivity in assay [3] of 0.
As for `COc1cccc(Cc2oc3ccccc3c2CCNC(C)=O)c1`, the pC1 in assay [1] was determined as 1.73; in assay [2], 0.64. Also, the Selectivity in assay [3] was found to be 1.09.
As to `COc1ccc2oc(Cc3cccc(F)c3)c(CCNC(C)=O)c2c1`, the pC1 in assay [1] is 3.64; in assay [2], 3.12. For the same compound, the Selectivity in assay [3] amounted to 0.513.
On to `COc1ccc2oc(Cc3cccc(Cl)c3)c(CCNC(C)=O)c2c1`, for which the pC1 in assay [1] was 3.66; in assay [2], 2.14. The compound also yielded a Selectivity in assay [3] of 1.51.
